Measurements: US20110300240A1, “CAJANUS EXTRACTS AND GLUCOSAMINE FOR INFLAMMATORY DISORDERS” (priority 2009, published 2011)

What was measured:
[1] = system: RAW264.7 murine macrophage cell line, PGE2 production; test: Inhibition of PGE2 synthesis in LPS-stimulated RAW264.7 macrophages (EIA); assay type: cell-based
Description: (§1) The anti-inflammatory effect of a mixture of Cajanus in combination with glucosamine sulfate was determined in cellular assays by measuring the inhibition of the synthesis of nitric oxide and/or pro-inflammatory prostaglandins (PGE2). PGE2 plays a critical role in the inflammation process, while nitric oxide (NO) is a hallmark of inflammation in various chronic inflammatory diseases including various forms of arthritis, gastro-intestinal diseases and metabolic syndrome X (Creamer P et al 1997 Lancet 350:503-508; Vuolteenaho et al. 2007 Scand. J Rheumatology 36:247-258).
(§2) The effects on the inflammatory response were tested in cellular assays using a murine macrophage cell line, RAW264.7. […]
(§3) Concentrations of nitrite were determined by the Griess reaction using sodium nitrite as standard. Briefly, 50 ul of supernatant was mixed with Griess reagent 1 (25 uL) and Griess reagent 2 (25 uL), centrifuged and the optical density at 540 nm determined. PGE2 secreted into the cell culture medium was determined by EIA obtained from Cayman Chemicals (Ann Harbor, Wis., USA) and used according to the manufacturer's instructions. […] IC50 values for LPS-stimulated cells were calculated using a […] least-square fitting equation [y=A+((B−A)/(1+((C−x)̂D))] for best-fit curves (Excel fit software program).

[2] = system: RAW264.7 murine macrophage cell line, nitric oxide production; test: Inhibition of nitric oxide production in LPS-stimulated RAW264.7 macrophages (Griess reaction); isobologram for combinations; assay type: cell-based
Description: as §1, §2
as §3, with “program). […]” for “program).”

[3] = Mus musculus, single substances, LPS 1 ug/ml, 24 hours, RAW264.7

## N[C@H]1C(O)O[C@H](CO)[C@@H](O)[C@@H]1O.O=S(=O)(O)O (stereo partly shown) [Glucosamine sulfate]
[1]; LPS-stimulated RAW264.7
  effect on PGE2 production (in words): no or only a marginal anti-inflammatory
[1]; [3]
  IC50: > 100 µg/mL
[2]; LPS-stimulated RAW264.7
  effect on NO production (in words): no or only a marginal anti-inflammatory
[2]; [3]
  IC50: > 100 µg/mL
